This passage reports GI50 and TGI results from PubChem BioAssay (NCI).

Among the test systems are SK-MEL-28 melanoma; KM12 colon; MCF7 breast; UO-31 renal; SF-539 CNS; IGROV1 ovarian; OVCAR-4 ovarian; 786-0 renal; BT-549 breast; OVCAR-8 ovarian.
Experiment in all cases: NCI anticancer screen, dose series, 48 h

Where “and” joins values, the source holds several entries; their conditions need not be identical. Equal entries are not always repeated.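 How tested: cells in 96-well plates exposed to compound for 48 hours at five concentrations. GI50 = concentration required for 50% inhibition of growth. At the TGI there is no net growth.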

As to `CCc1cccc(CC)c1NC(=O)c1ccn2c1CCc1cnc(Nc3ccc(N4CCN(C)CC4)cc3OC)nc1-2`, the GI50 was 1.76 µM in the assay on SK-MEL-28 melanoma; 2.63 µM with KM12 colon; 1.12 µM with MCF7 breast; 1.55 µM with UO-31 renal; 1.1 µM in the assay on SF-539 CNS; 2.52 µM with IGROV1 ovarian. Also, the GI50 was 3.77 µM in the assay on OVCAR-4 ovarian, 1.66 µM in the assay on 786-0 renal, 2.23 µM with BT-549 breast and 2.19 µM in the assay with OVCAR-8 ovarian. Moreover, the TGI in the assay on SK-MEL-28 melanoma was found to be 3.55 µM; in the assay on KM12 colon, 14.8 µM; with MCF7 breast, 7.55 µM; with UO-31 renal it was 7.74 µM; with SF-539 CNS it was 3.19 µM; in the assay with IGROV1 ovarian, 19.4 µM. Besides, the TGI in the assay with OVCAR-4 ovarian came out at 18.1 µM; with 786-0 renal, 3.84 µM; with BT-549 breast, 6.63 µM; with OVCAR-8 ovarian, 32.8 µM.
As for `Cc1ccc(C)c(N2C(=O)C(=O)c3c(C)ccc(C)c32)c1`, the TGI in the assay on SK-MEL-28 melanoma is above 100 µM; with KM12 colon, 66.1 µM; with MCF7 breast, 59 µM; with UO-31 renal it was 55.3 µM; in the assay with SF-539 CNS, 36.4 µM; in the assay with IGROV1 ovarian, 43.4 µM. The TGI in the assay on OVCAR-4 ovarian is above 100 µM; in the assay with 786-0 renal it was above 100 µM; with BT-549 breast, 42.2 µM; in the assay on OVCAR-8 ovarian, 51.5 µM.
Turning to `Cc1ccc2nc(CC(=O)c3ccc4ccccc4c3)c(=O)[nH]c2c1`, the TGI with SK-MEL-28 melanoma, with KM12 colon, in the assay on MCF7 breast, with UO-31 renal, in the assay with SF-539 CNS and in the assay with IGROV1 ovarian was above 100 µM each time. For the same molecule, the TGI in the assay with OVCAR-4 ovarian, in the assay with 786-0 renal, in the assay on BT-549 breast and in the assay on OVCAR-8 ovarian was above 100 µM in each case.
Take `O=C1c2ccccc2CCC1(Br)Br`: the GI50 in the assay with SK-MEL-28 melanoma is 2.08 µM; in the assay with KM12 colon, 4.34 µM; in the assay with MCF7 breast, 1.56 µM; in the assay on UO-31 renal, 1.27 µM; with SF-539 CNS, 1.88 µM; with IGROV1 ovarian, 2.59 µM. Besides, the GI50 with OVCAR-4 ovarian is 1.48 µM; in the assay with 786-0 renal, 2.21 µM; with BT-549 breast it was 2 µM; with OVCAR-8 ovarian, 2.36 µM. In addition, the TGI in the assay on SK-MEL-28 melanoma was 4.65 µM; with KM12 colon it was 15 µM; with MCF7 breast, 3.89 µM; with UO-31 renal it was 2.6 µM; in the assay with SF-539 CNS, 3.74 µM; with IGROV1 ovarian it was 5.98 µM. The TGI is 2.97 µM in the assay with OVCAR-4 ovarian, 4.55 µM in the assay on 786-0 renal, 4.96 µM with BT-549 breast and 6.04 µM with OVCAR-8 ovarian.
Turning to `C=C(CN(C)C)C(=O)c1ccc(OC)cc1`, the TGI in the assay with SK-MEL-28 melanoma stood at 8.63 µM; with KM12 colon, 39.4 µM; with MCF7 breast, 21.4 µM; in the assay with UO-31 renal, 7.92 µM; in the assay on SF-539 CNS, 9.56 µM; with IGROV1 ovarian it was 22 µM. Further, the TGI stood at 22.1 µM in the assay on OVCAR-4 ovarian, 5.78 µM in the assay on 786-0 renal, 18.1 µM in the assay on BT-549 breast and 3.17 µM in the assay with OVCAR-8 ovarian.
Consider `COCO[C@@H]1CC2C=Nc3cc(OCc4ccccc4)c(OC)cc3C(=O)N2C1` (some centres not stated), for which the GI50 is 1.6 µM in the assay on SK-MEL-28 melanoma; 0.578 µM in the assay on KM12 colon; 0.273 µM in the assay on MCF7 breast; 0.237 µM with UO-31 renal; 0.163 µM in the assay on SF-539 CNS; 0.436 µM with IGROV1 ovarian. In addition, the GI50 was 1.32 µM in the assay with OVCAR-4 ovarian, 1.3 µM in the assay on 786-0 renal, 0.31 µM in the assay on BT-549 breast and 0.348 µM with OVCAR-8 ovarian. Besides, the TGI in the assay with SK-MEL-28 melanoma was 12.6 µM; with KM12 colon it was 10.6 µM; with MCF7 breast, above 35.4 µM; with UO-31 renal, 2.14 µM; with SF-539 CNS it was 0.815 µM; in the assay with IGROV1 ovarian, 20.5 µM. Besides, the TGI with OVCAR-4 ovarian came to 27.5 µM; with 786-0 renal, 30.9 µM; with BT-549 breast, 2.39 µM; in the assay on OVCAR-8 ovarian, 6.52 µM.
Turning to `COc1ccc(CCN2COc3ccc4ccc(=O)oc4c3C2)cc1OC`, the TGI with SK-MEL-28 melanoma, in the assay with KM12 colon, in the assay on MCF7 breast, in the assay on UO-31 renal, with SF-539 CNS and in the assay on IGROV1 ovarian was above 100 µM throughout. For the same molecule, the TGI with OVCAR-4 ovarian, with 786-0 renal, with BT-549 breast and with OVCAR-8 ovarian was above 100 µM each time.
Consider `CC#CC(=O)N[C@H]1CCCN(c2c(F)cc(C(N)=O)c3[nH]c(C)c(C)c23)C1`, for which the GI50 with SK-MEL-28 melanoma was 17.4 µM; in the assay on KM12 colon, 14.3 µM; with MCF7 breast, 17.3 µM; with UO-31 renal, 15.9 µM; in the assay on SF-539 CNS, 13.3 µM; in the assay with IGROV1 ovarian it was 14 µM. Moreover, the GI50 was 22.5 µM in the assay on OVCAR-4 ovarian, 19 µM in the assay on 786-0 renal, 14.9 µM in the assay with BT-549 breast and 26.1 µM in the assay with OVCAR-8 ovarian. Further, the TGI in the assay on SK-MEL-28 melanoma is 35.6 µM; in the assay with KM12 colon, 46.4 µM; in the assay on MCF7 breast it was 36 µM; in the assay with UO-31 renal it was above 100 µM; with SF-539 CNS, 28.4 µM; with IGROV1 ovarian, 31.6 µM. Moreover, the TGI in the assay with OVCAR-4 ovarian was 81.3 µM; with 786-0 renal, 56.6 µM; with BT-549 breast it was 30.3 µM; with OVCAR-8 ovarian, 94.7 µM.
Turning to `Cc1ccc(C(CC(=O)c2ccccc2)C(C(=O)c2ccccc2)C(c2ccc(C)cc2)C2C(=O)NC(=S)NC2=O)cc1` (configuration not stated), the GI50 with SK-MEL-28 melanoma was above 50 µM; in the assay on KM12 colon, 15 µM; in the assay on MCF7 breast, 10.6 µM; in the assay on UO-31 renal, 6.93 µM; in the assay with SF-539 CNS, 28.9 µM; with IGROV1 ovarian, 19.2 µM. In addition, the GI50 was above 50 µM with OVCAR-4 ovarian, 26.2 µM in the assay with 786-0 renal, 31.7 µM in the assay on BT-549 breast and 16.9 µM in the assay with OVCAR-8 ovarian. Also, the TGI is above 50 µM in the assay on SK-MEL-28 melanoma; above 50 µM in the assay on KM12 colon; above 50 µM in the assay with MCF7 breast; 29.3 µM with UO-31 renal; above 50 µM with SF-539 CNS; above 50 µM with IGROV1 ovarian. Further, the TGI with OVCAR-4 ovarian, with 786-0 renal, in the assay on BT-549 breast and in the assay with OVCAR-8 ovarian was above 50 µM in each case.
As for `C/C=C1\C[C@@H]2C(OC)Nc3cc(O)c(OC)cc3C(=O)N2C1` (some centres not stated), the TGI in the assay on SK-MEL-28 melanoma was 0.0295 µM and 0.0176 µM; with KM12 colon, 0.34 µM and 0.0408 µM; in the assay on MCF7 breast it was 2.83 µM; with SF-539 CNS it was 0.00892 µM and < 0.0283 µM; in the assay on IGROV1 ovarian, 0.906 µM and 2.84 µM; with OVCAR-4 ovarian it was < 0.0172 µM and 0.0101 µM. Besides, the TGI in the assay with BT-549 breast was 0.0151 µM and 0.0269 µM; with OVCAR-8 ovarian, 0.61 µM and 1.03 µM. Besides, the GI50 is 0.00692 µM with MCF7 breast; 0.00222 µM in the assay on UO-31 renal; 0.00315 µM in the assay with SF-539 CNS; 0.0159 µM with IGROV1 ovarian; 0.00355 µM in the assay with OVCAR-4 ovarian; 0.00529 µM in the assay with 786-0 renal. Further, in the assay on OVCAR-8 ovarian, the GI50 was 0.00804 µM.
With `CNc1ccc(C(=O)CC(O)CCC(C)C2OC(=O)CC(O)CC(=O)CC(O)CC(O)CC(O)CC(O)CC3(O)CC(O)C(C(=O)NCCc4ccccn4)C(CC(OC4OC(C)C(O)C(N)C4O)/C=C/C=C/C=C/C=C\C=C/C=C/C=C/C2C)O3)cc1` (configuration not stated), the GI50 is 0.161 µM with SK-MEL-28 melanoma; 3.6 µM with KM12 colon; 1.25 µM in the assay with MCF7 breast; 0.551 µM in the assay on UO-31 renal; 2.73 µM in the assay on SF-539 CNS; 0.868 µM in the assay on OVCAR-4 ovarian. Moreover, the results for the GI50 with 786-0 renal, with BT-549 breast and with OVCAR-8 ovarian were 0.118 µM, 1.27 µM and 0.747 µM, respectively. Besides, the TGI is above 50 µM with SK-MEL-28 melanoma; above 18.9 µM in the assay with KM12 colon; 10.4 µM in the assay with MCF7 breast; above 50 µM in the assay with SF-539 CNS; above 50 µM in the assay on IGROV1 ovarian; above 50 µM in the assay on OVCAR-4 ovarian. Also, the TGI with 786-0 renal was 0.361 µM; in the assay on BT-549 breast, above 50 µM.
On to `COc1cc([N+](=O)[O-])c(OC)cc1-c1nc2n(c1/C(N)=N/C(=N)N)CCS2`, for which the GI50 with SK-MEL-28 melanoma is above 100 µM; in the assay with KM12 colon it was above 100 µM; with MCF7 breast it was above 100 µM; in the assay on UO-31 renal it was above 100 µM; in the assay with SF-539 CNS, 26.2 µM; with IGROV1 ovarian, 17.7 µM. In addition, the GI50 was 44 µM in the assay with OVCAR-4 ovarian, 25.1 µM in the assay with 786-0 renal, above 100 µM in the assay on BT-549 breast and 17.5 µM in the assay with OVCAR-8 ovarian. Further, the TGI with SK-MEL-28 melanoma, in the assay on KM12 colon, with MCF7 breast, in the assay on UO-31 renal, in the assay with SF-539 CNS and in the assay with IGROV1 ovarian was above 100 µM throughout. Further, the TGI with OVCAR-4 ovarian, in the assay with 786-0 renal, with BT-549 breast and with OVCAR-8 ovarian was above 100 µM throughout.
In the case of `C(=C\c1nc2ccccc2s1)/c1ccc(N2CCOCC2)s1`, the GI50 was above 100 µM with SK-MEL-28 melanoma; 93.8 µM in the assay on KM12 colon; 75 µM in the assay with MCF7 breast; 80.5 µM with UO-31 renal; 53.1 µM in the assay on SF-539 CNS; 58.3 µM with IGROV1 ovarian. The GI50 is 33.7 µM with OVCAR-4 ovarian, 33.7 µM with 786-0 renal, 34.6 µM in the assay on BT-549 breast and 35.5 µM in the assay on OVCAR-8 ovarian. In addition, the TGI in the assay on SK-MEL-28 melanoma, in the assay on KM12 colon, in the assay with MCF7 breast, in the assay with UO-31 renal, in the assay with SF-539 CNS and in the assay on IGROV1 ovarian was above 100 µM each time. Besides, the TGI in the assay with OVCAR-4 ovarian, with 786-0 renal, in the assay with BT-549 breast and in the assay on OVCAR-8 ovarian was above 100 µM throughout.
